Measured values published in US6087377A (priority 1999, dated 2000).
“Also recorded” adds a separate entry of the source. Where a name gives a salt, the structure may show the parent alone. Read-outs that look alike come from different tables or passages of the source.

Columns and labels:
beta-glucuronidase = conditions: cited from earlier work
p53 [1] = assay: Western immunoblot: p53 level in HT-29 cells; assay type: cell-based, human; conditions: HT-29, mutant (inactive) p53, Western immunoblot
PCNA [2] = assay: PCNA level in WI-38 fibroblasts; assay type: cell-based, human; conditions: WI-38, IC90 of SN-38 (40 nM)
PCNA [3] = assay: PCNA level in HT-29 cells; assay type: cell-based, human
[4] = tested on: WI-38 normal human diploid lung fibroblasts; assay: Growth inhibition of WI-38 normal human diploid lung fibroblasts; assay type: cell-based; conditions: WI-38 fibroblasts
[5] = tested on: WI-38 normal human diploid lung fibroblasts; conditions: normal WI-38 human fibroblasts; cited from earlier work
[6] = tested on: WI-38 normal human diploid lung fibroblasts; assay: Flow cytometry cell cycle arrest, apoptosis and recovery in WI-38 fibroblasts; assay type: cell-based
p21 [7] = assay: p21 level in WI-38 fibroblasts; assay type: cell-based, human; conditions: WI-38, following p53 and PCNA increase
HT-29 cells [8] = assay: Flow cytometric cell cycle arrest and apoptosis in HT-29 cells; assay type: cell-based, human
p21 [9] = assay: p21 detection in HT-29 cells; assay type: cell-based, human
HT-29 cells [10] = assay: Growth inhibition of human colon adenocarcinoma HT-29 cells; assay type: cell-based
HT-29 cells [11] = conditions: HT-29 human adenocarcinoma cells; Bacon et al. 1996 abstract; cited from earlier work
p53 [12] = assay: p53 level in WI-38 fibroblasts; assay type: cell-based, human; conditions: WI-38, IC90 of SN-38 (40 nM)
cells = conditions: droloxifene, Hasmann et al. 1994; cited from earlier work
[13] = tested on: proliferating cell nuclear antigen (PCNA); conditions: hamster, in vivo
intestinal epithelium [14] = assay: Irinotecan toxicity in the Syrian hamster: intestinal epithelium, diarrhea, weight loss
intestinal epithelium [15] = conditions: hamster, in vivo
[16] = tested on: proliferating cell nuclear antigen (PCNA); assay: Western immunoblot and immunohistochemistry for PCNA in irinotecan-treated hamster intestinal epithelium; conditions: Western immunoblot
cancer patients = conditions: cited from earlier work
humans = conditions: loperamide, aggressive high-dose co-therapy, 2 hr intervals at onset of diarrhea; cited from earlier work
hamsters = assay: Tamoxifen pre- and co-treatment of CPT-11-treated hamsters: weight loss and survival; assay type: in vivo, hamster
[17] = tested on: MCF-7 breast cancer cells; conditions: tamoxifen, Otto et al. 1996, cited from earlier work
hamster colon = assay: Tamoxifen pre- and co-treatment of CPT-11-treated hamsters: colon morphology and function; assay type: in vivo; conditions: tamoxifen pre- and co-treatment with CPT-11
cyclin D1/cdk4 = conditions: thought to be the mechanism; Watts et al. 1995; cited from earlier work
WI-38 cells = assay: Effect of tamoxifen on replication of SN-38-treated normal WI-38 cells; assay type: cell-based, human; conditions: WI-38 (non-tumor) pretreated with tamoxifen prior to and during SN-38 exposure

In the case of O=C(O)[C@H]1O[C@@H](Oc2cc3oc(-c4ccccc4)cc(=O)c3c(O)c2O)[C@H](O)[C@@H](O)[C@@H]1O [Baicalin, baicalin], the “inhibition of beta-glucuronidase (presumed anti-diarrheal mechanism)” value (beta-glucuronidase) is given as “has similar activity”.

For CCc1c2c(nc3ccc(O)cc13)-c1cc3c(c(=O)n1C2)COC(=O)[C@]3(O)CC [SN-38], the “levels of p53” value (p53 [1]) was “upregulated”, the PCNA levels (PCNA [2]) was “increased along with PCNA” and the PCNA levels (PCNA [3]) was “increased”. The IC90 [4] was 40 nM, the cell cycle arrest [5] was “arrested in S/G2” and the apoptosis ([6]; WI-38, IC90 of SN-38 (40 nM)) was “did not undergo apoptosis”. The “cell cycle arrest (flow cytometry)” value ([6]; WI-38, IC90 of SN-38 (40 nM)) was “arrested in the S phase of the cell cycle”, the “re-entry into the cell cycle” value ([6]; WI-38, when drug was removed) was “slowly re-entered the cell cycle when drug was removed” and the p21 (p21 [7]) was “followed by increases in p21”. For the same compound, the “apoptosis / recovery from arrest” value (HT-29 cells [8]; HT-29, after arrest) was “cells did not recover but instead underwent programmed cell death (apoptosis)”, the “cell cycle arrest (flow cytometry)” value (HT-29 cells [8]; HT-29, growth-arrested cells) was “replication was blocked in the G2 phase of the cell cycle” and the p21 (p21 [9]) was “p21 is not upregulated; we have been unable to detect p21”. The IC90 (HT-29 cells [10]) was 10 nM, the inhibition at 0.01 µM (HT-29 cells [10]; SN-38 10 nM) was greater than 90% and the “cell cycle arrest and apoptosis” value (HT-29 cells [11]) was “arrest in G2 /M followed by apoptosis”. The “levels of p53 (wild type)” value (p53 [12]) was “increased”.

For CC/C(=C(/c1ccc(OCCN(C)C)cc1)c1cccc(O)c1)c1ccccc1 [droloxifene], the cell cycle block (cells) is given as “block cells in the G1 phase of the cell cycle in a manner similar to tamoxifen”.

In the case of CCc1c2c(nc3ccc(OC(=O)N4CCC(N5CCCCC5)CC4)cc13)-c1cc3c(c(=O)n1C2)COC(=O)[C@]3(O)CC [irinotecan, irinotecan hydrochloride], the “PCNA elevation (Western immunoblot)” value [13] was “time-dependent elevation in proliferating cell nuclear antigen (PCNA)”, the PCNA immunohistochemistry [13] was “increase in the number of labelled epithelial cells and labelling intensity in treated animals, with labelled cells positionally located farther towards the villus tip compared to controls” and the “toxicity to the intestinal epithelium” value (intestinal epithelium [14]; coincident with onset of delayed diarrhea) was “considerable toxicity to the intestinal epithelium”. For the same compound, the “crypts / epithelial cells” value (intestinal epithelium [14]; histology) was “apparent reduction of crypts and/or a loss of epithelial cells”, the colon epithelium histology (intestinal epithelium [15]) was “thinned and vacuolated” and the “crypt cell replication (bromodeoxyuridine labelling)” value (intestinal epithelium [15]) was “reduction in crypt cell replication”. The “diarrhea and weight loss” value (intestinal epithelium [15]) was “coincident with diarrhea and weight loss”, the “structural integrity of the mucosal epithelium” value (intestinal epithelium [15]) was “time-dependent loss of structural integrity of the mucosal epithelium in the jejunum and ileum; villi appeared corrugated and epithelial cells lost their typical columnar morphology” and the “water and electrolyte loss” value (intestinal epithelium [15]) was “increased water and electrolyte loss”. The “time of detection of PCNA elevation” value [16] was 1 days, the major dose-limiting toxicity (cancer patients; cancer patients) was “severe delayed chronic grade 3-4 diarrhea” and the “intestinal toxicity (diarrhea)” value (cancer patients; humans, CAMPTOSAR Injection) was “potentially life-threatening intestinal toxicity (diarrhea)”. For the same compound, the antitumor activity (cancer patients; variety of tumor types) was “activity against a variety of tumor types, and in particular refractory colorectal tumors”.

For CN(C)C(=O)C(CCN1CCC(O)(c2ccc(Cl)cc2)CC1)(c1ccccc1)c1ccccc1 [loperamide], the control of diarrhea (humans) is listed as “successful in most cases”.

In the case of CC/C(=C(\c1ccccc1)c1ccc(OCCN(C)C)cc1)c1ccccc1 [tamoxifen], the “weight loss associated with CPT-11 administration” value (hamsters; tamoxifen pre- and co-treatment) is listed as “reduced; also recorded: reduces weight loss attributable to diarrhea”, the survival (hamsters; tamoxifen pre- and co-treatment with CPT-11) is listed as “survival increased” and the cell cycle block [17] is listed as “blocks cell cycle progression in G0 /G1”. For the same compound, the cell cycle block ([17]; listed as Tamoxifen) was “block in the G0 /G1 phase of the cell cycle”, the “morphology and function of the colon” value (hamster colon) was “improvement in morphology and function of the hamster colon; also recorded: reduces the colonic pathology and physiological effects” and the “repression of G1-specific protein kinase activity” value (cyclin D1/cdk4) was “repression of G1 -specific protein kinase activity”. The “recovery of replication after SN-38” value (WI-38 cells) was “regained replication kinetics to a greater extent; also recorded: enhances the recovery of a non-tumor cell line from SN-38-induced inhibition”.
